Series [1] addresses T1, Alpha amylase (Homo sapiens, UniProt P0DUB6).
T1 sequence (P0DUB6 whole entry): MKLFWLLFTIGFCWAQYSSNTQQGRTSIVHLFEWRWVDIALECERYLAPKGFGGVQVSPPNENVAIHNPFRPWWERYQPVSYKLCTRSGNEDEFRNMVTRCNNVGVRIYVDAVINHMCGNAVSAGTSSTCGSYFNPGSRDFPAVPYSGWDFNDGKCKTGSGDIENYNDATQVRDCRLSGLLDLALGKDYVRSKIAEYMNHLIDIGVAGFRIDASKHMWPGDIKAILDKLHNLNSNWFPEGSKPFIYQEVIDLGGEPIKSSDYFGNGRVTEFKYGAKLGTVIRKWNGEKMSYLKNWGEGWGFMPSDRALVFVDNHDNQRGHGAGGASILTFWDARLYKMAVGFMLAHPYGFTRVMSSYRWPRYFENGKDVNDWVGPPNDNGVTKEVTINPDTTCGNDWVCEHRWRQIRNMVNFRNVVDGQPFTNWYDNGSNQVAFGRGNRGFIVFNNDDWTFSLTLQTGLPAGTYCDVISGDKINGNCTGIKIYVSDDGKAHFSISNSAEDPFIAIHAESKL
Briefly: Inhibition of alpha-amylase (unknown origin).

The target of series [2] is T2, Phospholipase A2, membrane associated (Homo sapiens, UniProt P14555).
T2 sequence (P14555 whole entry): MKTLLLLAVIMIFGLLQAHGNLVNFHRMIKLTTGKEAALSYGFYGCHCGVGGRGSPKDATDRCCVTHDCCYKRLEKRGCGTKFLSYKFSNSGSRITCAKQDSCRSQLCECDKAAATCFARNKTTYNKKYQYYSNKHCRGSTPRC
Briefly: Inhibition of human PLA2G2A.

Series [3] has as its target T3, Group XIIA secretory phospholipase A2 (Homo sapiens, UniProt Q9BZM1).
T3 sequence (Q9BZM1 whole entry): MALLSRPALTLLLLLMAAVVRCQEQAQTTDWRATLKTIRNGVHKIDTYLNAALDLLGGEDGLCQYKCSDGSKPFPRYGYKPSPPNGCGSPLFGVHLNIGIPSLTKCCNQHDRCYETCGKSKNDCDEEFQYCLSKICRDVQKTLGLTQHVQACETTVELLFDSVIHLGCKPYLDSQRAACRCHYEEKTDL
Description: Inhibition of human PLA2G12A.

In series [4] the target is Phospholipase A2, major isoenzyme (Sus scrofa, UniProt P00592). Description: Inhibition of porcine PLA2G1B.
Series [5] concerns the target T4, Phospholipase A2 group V (Homo sapiens, UniProt P39877).
T4 sequence (P39877 whole entry): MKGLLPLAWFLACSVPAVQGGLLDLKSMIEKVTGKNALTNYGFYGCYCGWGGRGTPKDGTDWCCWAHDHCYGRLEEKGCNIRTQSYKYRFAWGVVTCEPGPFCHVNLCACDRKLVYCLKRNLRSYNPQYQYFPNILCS
Briefly: Inhibition of human PLA2G5.

Series [6] has as its target T5, Group 10 secretory phospholipase A2 (Homo sapiens, UniProt O15496).
T5 sequence (O15496 whole entry): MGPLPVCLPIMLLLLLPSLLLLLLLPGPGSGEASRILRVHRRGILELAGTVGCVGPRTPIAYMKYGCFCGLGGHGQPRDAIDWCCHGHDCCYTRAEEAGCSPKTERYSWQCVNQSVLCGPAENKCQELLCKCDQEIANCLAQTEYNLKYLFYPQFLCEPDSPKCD
Briefly: Inhibition of human PLA2G10.

Series [7] deals with Bacillus anthracis. Briefly: Antibacterial activity against Bacillus anthracis. The class given is functional.
The test system of series [8] is Shigella dysenteriae. Briefly: Antibacterial activity against Shigella dysenteriae. It counts as functional.
Series [9] deals with Escherichia coli. Briefly: Antibacterial activity against Escherichia coli. It counts as functional.
Series [10] deals with Bacillus subtilis. Description: Antibacterial activity against Bacillus subtilis. The class given is functional.
In series [11] the test system is Enterococcus faecalis. Briefly: Antibacterial activity against Enterococcus faecalis. The class given is functional.
The subject of series [12] is Geobacillus stearothermophilus. Briefly: Antibacterial activity against Bacillus stearothermophilus. It counts as functional.
The test system of series [13] is Bacillus cereus. Briefly: Antibacterial activity against Bacillus cereus. It counts as functional.
Series [14] concerns Pseudomonas aeruginosa. Briefly: Antibacterial activity against Pseudomonas aeruginosa. The class given is functional.
The subject of series [15] is Klebsiella pneumoniae. Briefly: Antibacterial activity against Klebsiella pneumoniae. The class given is functional.
Series [16] deals with HeLa S3. Description: Cytotoxicity against human HeLa S3 cells. The class given is functional, cell-based.
In series [17] the test system is Staphylococcus aureus. Briefly: Antibacterial activity against Staphylococcus aureus. The class given is functional.
In series [18] the target is Glutamate [NMDA] receptor. Description: Displacement of [3H]NMDA from NMDA receptor (unknown origin). The class given is protein-complex assay, Homo sapiens.
Series [19] can be described thus: Aqueous solubility of the compound. The class given is physicochemical. The note with it: buffer.
Series [20] concerns the target Glutamate [NMDA] receptor. Description: Displacement of [3H]L-689560 from NMDA receptor (unknown origin). The class given is protein-complex assay, Homo sapiens. On the technique in general: Displacement assays read how much labelled ligand stays bound in the presence of the test substance.
Series [21] deals with Glutamate receptor ionotropic AMPA (Homo sapiens, UniProt P42261+P42262+P42263+P48058). Description: Antagonist activity at AMPA receptor (unknown origin). The class given is protein-complex assay.
The test system of series [22] is Mus musculus. Description: Antiinflammatory activity against mouse assessed as reduction in carragenan-induced paw edema at 25 mg/kg,po treated 1 hr prior to carrageenan challenge. The class given is functional. On the set-up: scale not given: the % may be the effect or the level left.
The species entered for series [23] is Homo sapiens. Description: Ratio IC50 for inhibition of JNK1 (unknown origin) over JNK3 (unknown origin).
For series [24], the species on record is Homo sapiens. Description: Ratio IC50 for inhibition of JNK2 (unknown origin) over JNK3 (unknown origin).
A short description of series [25]: Displacement of [3H]AMPA from NMDA receptor (unknown origin). The class given is protein-complex assay, Homo sapiens.
Series [26] concerns the target Glutamate [NMDA] receptor. Briefly: Displacement of [3H]kainic acid from NMDA receptor (unknown origin). It counts as protein-complex assay, Homo sapiens.
For series [27], the target named is Glutamate [NMDA] receptor. Briefly: Displacement of [3H]CGP-39653 from NMDA receptor (unknown origin). It counts as protein-complex assay, Homo sapiens.
Series [28] deals with Glutamate [NMDA] receptor. Briefly: Displacement of [3H]DCKA from NMDA receptor (unknown origin). The class given is protein-complex assay, Homo sapiens.
In series [29] the test system is Anopheles sp. Briefly: Larvicidal activity against Anopheles at 0.5 ug/ml. The class given is functional. The note with it: dose 0.5 µg/ml.
Series [30] deals with Anopheles sp. Briefly: Larvicidal activity against Anopheles at 0.1 ug/ml. The class given is functional. Particulars: dose 0.1 µg/ml.
The test system of series [31] is Anopheles sp. Description: Larvicidal activity against Anopheles at 0.25 ug/ml. Particulars: dose 0.25 µg/ml. It counts as functional.
In series [32] the test system is Anopheles sp. Description: Larvicidal activity against Anopheles at 1 ug/ml. The class given is functional. Particulars: dose 1.0 µg/ml.
In series [33] the test system is Candida. Briefly: Antifungal activity against Candida species. It counts as functional.
Series [34] has as its system Salmonella typhimurium. Briefly: Antibacterial activity against Salmonella typhimurium assessed as diameter zone of inhibition. The class given is functional, Salmonella enterica subsp. enterica serovar Typhimurium.
Series [35] has as its system Staphylococcus aureus. Briefly: Antibacterial activity against Staphylococcus aureus assessed as diameter zone of inhibition. It counts as functional.
In series [36] the test system is Pseudomonas aeruginosa. Description: Antibacterial activity against Pseudomonas aeruginosa assessed as diameter zone of inhibition. The class given is functional.
In series [37] the test system is Streptococcus pneumoniae. Briefly: Antibacterial activity against Streptococcus pneumoniae assessed as diameter zone of inhibition. The class given is functional.
The test system of series [38] is Bacillus subtilis. Description: Antibacterial activity against Bacillus subtilis assessed as diameter zone of inhibition. The class given is functional.
The subject of series [39] is Escherichia coli. Briefly: Antibacterial activity against Escherichia coli assessed as diameter zone of inhibition. It counts as functional.

Converted amounts (≈) assume the structure as drawn.

One may read the IC50 as the concentration that gives 50% inhibition. The MIC is the least concentration at which growth counts as inhibited. A word on the solubility: it is the concentration that dissolves in the medium under given conditions. For orientation: EC50 means the midpoint of the concentration-response curve. As usually defined, the Ki is the dissociation constant of the complex between target and ligand, obtained from inhibition or displacement.

Sequence of Phospholipase A2, major isoenzyme (P00592 whole entry): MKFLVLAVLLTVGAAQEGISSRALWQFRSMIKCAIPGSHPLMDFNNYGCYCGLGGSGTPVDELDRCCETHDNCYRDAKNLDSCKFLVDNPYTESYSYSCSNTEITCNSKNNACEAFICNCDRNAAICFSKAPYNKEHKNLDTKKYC

Turning to `O=c1[nH]c2ccccc2n2c(-c3ccc(Cl)c(Cl)c3)ccc12`, the IC50 in [1] is 431810 nM; in series [2], 1810 nM; in series [3] it was 1410 nM; in series [4], 14500 nM; in series [5] it was 3040 nM; in series [6], 2710 nM.

As for `O=C1CC(c2ccccc2)=NN1c1nc2ccccc2[nH]c1=O`, the MIC in [7] turned out to be 7.8 µg/mL (≈ 25.6 µM); in [8], 62.5 µg/mL (≈ 205 µM); in series [9] it was 15.6 µg/mL (≈ 51.3 µM); in series [10], 7.8 µg/mL (≈ 25.6 µM); in series [11] it was 7.8 µg/mL (≈ 25.6 µM); in series [12] it was 15.6 µg/mL (≈ 51.3 µM). Moreover, the MIC in series [13] turned out to be 7.8 µg/mL (≈ 25.6 µM); in series [14], 31.3 µg/mL (≈ 103 µM); in series [15] it was 7.8 µg/mL (≈ 25.6 µM).

Take `CCC(C)C1Nc2ccccc2NC1=O` (configuration not stated): half-maximal inhibition in series [16] (IC50) was put at 17200 nM.

Turning to `C/C(=N\Nc1nc2ccccc2[nH]c1=O)c1cc2cc(Cl)ccc2oc1=O`, the MIC in series [7] came out at 7.8 µg/mL (≈ 20.5 µM); in series [8], 15.6 µg/mL (≈ 41 µM); in [9], 7.8 µg/mL (≈ 20.5 µM); in [10], 7.8 µg/mL (≈ 20.5 µM); in series [17], 15.6 µg/mL (≈ 41 µM); in [12] it was 7.8 µg/mL (≈ 20.5 µM). In addition, the minimal inhibitory concentration (MIC) in series [13] and in [15] was 7.8 µg/mL (≈ 20.5 µM) each time.

In the case of `O=c1[nH]c2ccccc2n2c(-c3ccc([N+](=O)[O-])cc3[N+](=O)[O-])ccc12`, the concentration for half-maximal inhibition (IC50) in series [1] worked out at 806190 nM; in series [2] it was 760 nM; in [3], 2580 nM; in series [4] it was 13600 nM; in series [5] it was 1530 nM; in series [6], 1050 nM.

Turning to `CCC(c1c(Cl)c(Cl)cc2nc(O)c(O)nc12)n1cnnc1` (configuration not stated), the IC50 in [18] is 90 nM; in [20], 2.6 nM. The molecule also came in with a solubility in series [19] of more than 5000 µg/mL.

Take `Cc1cc2[nH]c(=O)c(=O)n(C[C@H](N)C(=O)O)c2cc1C`: the EC50 in series [21] was 290000 nM.

On to `CC(C)Cc1ccc(C(C)C(=O)O)cc1` (configuration not stated) [IBUPROFEN], for which the Activity in [22] is reported as 39.3%.

Regarding `N#Cc1ccc2c(c1)N/C(=C\C(=O)c1cccc3ccccc13)C(=O)N2`, the Ratio IC50 in series [23] and in [24] was more than 500 throughout.

As for `O=C1Nc2ccccc2N/C1=C\C(=O)c1cccc2ccccc12`, the Ratio IC50 in series [23] and in series [24] was more than 400 each time.

Regarding `O=C(O)CC1CCc2cc(Br)cc3[nH]c(=O)c(=O)n1c23` (configuration not stated), the half-inhibitory concentration (IC50) in series [25] was 4600 nM; in series [26], more than 30000 nM; in series [27], more than 30000 nM. The same molecule displayed an inhibition constant Ki in series [28] of 9.9 nM.

In the case of `CCCn1cnc(Cc2c(Cl)c(Cl)cc3nc(O)c(O)nc23)c1`, the IC50 in series [18] turned out to be 350 nM; in series [20], 4.4 nM. In addition, the solubility in series [19] is more than 10000 µg/mL.

For `COc1ccc2nc(-c3ccccc3)c(=O)n(CC#N)c2c1`, the Activity in [29] stood at 66.7%; in [30], 60%; in series [31], 66.7%; in [32], 73.7%.

Regarding `CCOC(=O)c1nc2ccc(C)cc2[nH]c1=O`, the MIC in [33] and in [14] was 250 µg/mL (≈ 1080 µM) each time.

As for `O=C(CC1CCc2cc(Br)cc3[nH]c(=O)c(=O)n1c23)Nc1ccccc1` (configuration not stated), the IC50 is 4600 nM in [25], more than 25000 nM in series [26] and more than 25000 nM in [27]. This molecule also yielded a Ki in [28] of 2.6 nM.

Consider `Cc1cccc(C)c1NCC(=O)N1CC(=O)Nc2ccccc21`, for which the “diameter of the inhibition zone (DIZ)” value in series [34] came out at 9 mm; in [35], 8 mm; in [36], 11 mm; in [37] it was 8 mm; in series [38], 11 mm; in [39] it was 10 mm.

The values are drawn from ChEMBL document CHEMBL5113380, “Functionalized quinoxalinones as privileged structures with broad-ranging pharmacological activities” (Eur J Med Chem, 2022).
